One compound from article PMC5365662, “A Short Double-Stapled Peptide Inhibits Respiratory Syncytial Virus Entry and Spreading” (Antimicrobial Agents and Chemotherapy, 2017) can be followed below.

The format of data set [1] is in vivo. The note with it: noninfected mice, same i.n. protocol, blood 1 month after first inoculation, ELISA, data not shown. The protocol: To investigate this further, peptide 4ca was administered to noninfected animals according to the same protocol. The blood of mice was collected 1 month after the first inoculation, and the presence of anti-4ca antibodies in the sera of these animals was analyzed by enzyme-linked immunosorbent assay (ELISA).
(In an ELISA, binding on a coated surface is turned into a signal by an enzyme label.)

Data set [2] relates to HEp-2 cells. Description: Cytotoxicity, CellTiter-Glo Luminescent cell viability assay. The data set is classed as cell-based. The note with it: serial dilutions of peptide, 24 h, duplicates. The protocol:
Viral replication was quantified by measuring the mCherry fluorescence at 48 h p.i. and normalized based on the fluorescence of infected and untreated cells. (B) Cytotoxicity assay. HEp-2 cells were incubated in the presence of serial dilutions of peptides, and cell survival was quantified using the CellTiter-Glo Luminescent cell viability assay 24 h after the addition of the peptides. The signal was normalized based on the luminescence obtained for untreated cells. Error bars are standard deviations from duplicates.
A549 (ATCC CCL-185) cells were maintained in Dulbecco's modified Eagle medium (DMEM) supplemented with 10% fetal calf serum (FCS). HEp-2 (ATCC CCL-23) cells were maintained in Eagle's miminum essential medium (EMEM) supplemented with 10% FCS, 2 mM L-glutamine, and penicillin-streptomycin solution. The cells were grown in an incubator at 37°C in 5% CO2. Cytotoxicity assays were done with the CellTiter-Glo Luminescent cell viability assay (Promega).
Background: In ATP-based viability assays light output follows the ATP content of the culture.

Data set [3] concerns rHRSV-Luc. As to the kind of experiment: RSV infection of mice, intranasal treatment, in vivo luminescence. To be noted: BALB/c, n = 4. The protocol: In order to track the infection, we used the recombinant virus rHRSV-Luc, which was previously shown to allow in vivo imaging studies of RSV replication and spreading and constitutes a powerful and convenient tool for the evaluation of drug efficiency against RSV in the mouse model ([24]). […] Mice were anesthetized at day 3 p.i. and observed alive using the IVIS imaging system 5 min after i.n. injection of D-luciferin. […] At day 3 p.i., a second dose of the peptide was administered to the mice, and the bioluminescence was measured at day 5 p.i. […]
Female BALB/c mice were purchased from the Centre d'Elevage R. Janvier (Le Genest Saint-Isle, France) and were used at 8 weeks of age. […] Luminescence measurement was then performed at day 5 p.i.
Mice were anesthetized, and luminescence was measured 5 min following i.n. injection of 50 μl of PBS containing 0.75 mg kg^−1 of body weight D-luciferin (Sigma). Photon emission of mock-infected and rHRSV-Luc-infected mice was measured using the IVIS 200 imaging system (Xenogen Corp.). […] Digital false-color photon emission images of mice were generated, and photons were counted within a constant region of interest corresponding to the surface of the chest encompassing the whole-airway area. Photon emission was measured as radiance in photons per second per square centimeter per steradian (p s^−1 cm^−2 sr^−1).

Data set [4] is described as follows: Histological analysis of lungs. The data set is classed as in vivo, BALB/c mice. The protocol:
In order to track the infection, we used the recombinant virus rHRSV-Luc, which was previously shown to allow in vivo imaging studies of RSV replication and spreading and constitutes a powerful and convenient tool for the evaluation of drug efficiency against RSV in the mouse model ([24]). […] Mice were anesthetized at day 3 p.i. and observed alive using the IVIS imaging system 5 min after i.n. injection of D-luciferin. […] At day 3 p.i., a second dose of the peptide was administered to the mice, and the bioluminescence was measured at day 5 p.i. […] At day 7 p.i., a time corresponding to the end of the infection in mice, the animals were sacrificed and the lungs were collected in order to perform a histological analysis. […]
Mice were sacrificed at day 7 p.i., the chest cavity was opened, and the lungs were perfused intratracheally with 4% paraformaldehyde (PFA) in PBS. […] The lungs were embedded in paraffin, and 5-μm sections were cut, stained with hematoxylin-eosin-saffron (HES), and evaluated microscopically. Qualitative histological changes were described and when applicable were scored semiquantitatively using a three-point scale from 0 to 2 (0, none; 1, mild; 2, marked), focusing on histological characterization of lesions (interstitial pneumonia, respiratory epithelial cell apoptosis, and hyperplasia) and inflammation.

Data set [5] in a line: Far-UV circular dichroism, α-helical content. The data set is classed as physicochemical. The note with it: CD, 10 mM phosphate buffer pH 7.5, 50 μM peptide, 25°C. The protocol:
The circular dichroism spectra were acquired on a Chirascan spectropolarimeter. The samples were prepared in 10 mM phosphate buffer, pH 7.5, at a peptide concentration of 50 μM. Data were recorded at 25°C by step scan from 180 nm to 260 nm in a 0.5-mm path length quartz cell using 1-nm wavelength increments and a response time of 1 s. The data were converted to per residue molar ellipticity units [θ] (degree per square centimeter per decimole per residue) and smoothed using the Igor Pro software. The percentage of helicity was calculated as described previously ([35]).

Bridge positions count the residues as written; N and C are the ends. Square brackets hold non-standard residues; d marks the D form. Peptide text beside a SMILES is read from it. R5 = C=CCCC[C@@](C)(N)C(=O)O; S5 = C=CCCC[C@](C)(N)C(=O)O

In the case of `CC[C@H](C)[C@@H]1NC(=O)[C@H](Cc2ccccc2)NC(=O)[C@@](C)(NC(=O)[C@H](CC(C)C)NC(=O)[C@H](CO)NC(=O)[C@]2(C)CCCC=CCCC[C@@](C)(NC(=O)[C@H](CCC(=O)O)NC(C)=O)C(=O)N[C@@H]([C@@H](C)CC)C(=O)N[C@@H](CC(N)=O)C(=O)N2)CCCC=CCCC[C@@](C)(C(=O)N[C@@H](CO)C(=O)N[C@@H](CC(=O)O)C(=O)N[C@@H](CCC(=O)O)C(=O)N[C@@H](CC(C)C)C(=O)N[C@@H](CC(C)C)C(=O)N[C@@H](Cc2c[nH]cn2)C(=O)N[C@@H](CC(N)=O)C(=O)N[C@H](C(N)=O)C(C)C)NC(=O)[C@H](CCCNC(=N)N)NC1=O` [Peptide 4ca] (Ac-E[R5]IN[S5]SL[S5]FIR[S5]SDELLHNV-NH2; staple 2-5, 8-12), the “antibodies specific to 4ca in sera (anti-IgG1, anti-IgG2a, anti-IgA)” value in data set [1] is “no antibodies specific to 4ca could be detected”. Further, in data set [2], the cellular toxicity entry is listed as “no cellular toxicity was detected”. Also, in data set [3] (i.n. 50 μl at 50 μM in PBS at day 0 (10 min before rHRSV-Luc 5 × 10^4 PFU) and day 3, day 5 p.i.), the “decrease of viral infection versus untreated mice (bioluminescence)” value stood at 3 fold. For the same compound, in data set [3] (i.n. 50 μl at 50 μM in PBS, rHRSV-Luc 5 × 10^4 PFU, day 3 p.i.), the “bioluminescence in snout and lungs versus control mice” value is recorded as “clearly reduced”. Further, the “histological changes in lung parenchyma (toxicity)” value in data set [4] (4ca-inoculated versus mock-inoculated noninfected mice, i.n. 50 μl at 50 μM, day 7, HES staining) is listed as “no histological changes”. Also, the “interstitial pneumonia after RSV infection” value in data set [4] (RSV-infected mice treated i.n. with 4ca, day 7 p.i., HES staining) is “no interstitial pneumonia was observed”. For the same compound, the “% Helicity” value in data set [5] (Table 2) is on record as >100%; in data set [5] (Table 3 (Ala scan)), 85%.
